These results are taken from US7915268B2, “8-substituted 2-(benzimidazolyl)purine derivatives for immunosuppression” (Wyeth LLC, priority 2006, dated 2011).

One assay deals with kidney transplantation. The conditions noted are these: primate kidney transplantation; cited from earlier work.
For another assay, the system named is heart transplantation. The note with it: murine heart transplantation; cited from earlier work.
The next assay deals with T1, Jak3 (Homo sapiens, UniProt P52333).
T1 construct: catalytic domain of Jak3 (508aa to 1124aa); made in house; host or cells: Sf9 insect cells (baculovirus, pFastBac 1)
T1 sequence (P52333 508-1124): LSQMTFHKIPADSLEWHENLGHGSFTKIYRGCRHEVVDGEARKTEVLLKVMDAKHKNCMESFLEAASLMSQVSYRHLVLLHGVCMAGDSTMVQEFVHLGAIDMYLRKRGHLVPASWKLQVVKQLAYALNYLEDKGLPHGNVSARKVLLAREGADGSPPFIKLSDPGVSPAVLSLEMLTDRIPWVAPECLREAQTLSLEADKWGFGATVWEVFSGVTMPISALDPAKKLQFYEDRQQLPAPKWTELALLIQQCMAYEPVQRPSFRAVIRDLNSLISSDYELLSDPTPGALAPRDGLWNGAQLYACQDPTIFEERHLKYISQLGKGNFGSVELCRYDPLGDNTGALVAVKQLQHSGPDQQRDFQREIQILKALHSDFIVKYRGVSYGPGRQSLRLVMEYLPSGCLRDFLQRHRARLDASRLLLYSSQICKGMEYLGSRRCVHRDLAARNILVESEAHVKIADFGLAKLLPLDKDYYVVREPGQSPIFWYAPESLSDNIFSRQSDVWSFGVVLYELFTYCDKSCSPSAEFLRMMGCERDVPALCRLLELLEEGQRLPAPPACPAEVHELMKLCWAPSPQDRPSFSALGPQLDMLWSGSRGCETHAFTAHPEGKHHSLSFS
Nature of the assay: Jak3 Kinase Assay (HTRF, GST-Jak3 catalytic domain). The conditions noted are these: 1 μM ATP, 60-min incubation, read-out: Jak 3 (Converted). The class given is biochemical. As for the experimental part:
Human Jak3 cDNA was amplified by PCR. A fragment encoding the catalytic domain of Jak3 (508aa to 1124aa) was ligated with GST at 5′ end. This fused GST-Jak3 DNA fragment was cloned into the EcoRI site of the donor plasmid pFastBac 1 (Life Technologies #10359-016). The transformation, transposition, and transfection of insect cells (Sf9) were performed according to the manufacture's instructions. The cell lysate containing recombinant GST-Jak3 was used in the kinase assay. Anti-GST antibody (10 μg/ml, Sigma #G1417) was coated onto a 384-well plate at 4° C. overnight. Cell lysate containing GST-Jak3 (1:100 dilution) was added to the anti-GST coated plates, and GST-Jak3 was captured by immobilized anti-GST antibody. Testing compounds and substrate mix (50 mM HEPES, pH 7, 0.5 mM Na3VO4, 25 mM MgCl2, 1 mM DTT, 0.005% BSA, 1 μM ATP, and 4.5 μg/ml biotinyl poly-Glu, Ala, Tyr) were added to the plate to initiate the reaction. After a 60-min incubation, the reaction was stopped by 4 mM EDTA, and phosphorylation of biotinyl poly-Glu, Ala, Tyr was detected using 17 μg/ml Cy5-streptavidin (Amersham, #PA92005) and 2.7 μg/ml Europium-conjugated anti-phosphotyrosine antibody (PerkinElmer #AD0069) using homogeneous time-resolved fluorescence (HTRF) technology.

The next assay relates to IFN-γ production. Nature of the assay: IL-2-Induced IFN-γ Production in the Mouse. The class given is in vivo. The conditions noted are these: oral dose at 30 mg/kg, BALB/c mice, serum IFN-γ. As for the experimental part:
IL-2-Induced IFN-γ Production in the Mouse
Administration of IL-2 leads to an increase in serum IFN-γ in the mouse due to NK secretion of the cytokine (Thornton S, Kuhn K A, Finkelman F D and Hirsch R. NK cells secrete high levels of IFN-γ in response to in vivo administration of IL-2. Eur J Immunol 2001 31:3355-3360). The experiment is carried out essentially according to the protocol in Thornton et al. and the test compounds are administered in order to determine the level of inhibition attained. In summary, female BALB/c mice are fasted for 12-18 hours before a study but have free access to water at all times. Test compounds are administered by gavage one hour before intraperitoneal injection of IL-2 and capture antibody. At termination of the studies, the mice are sacrificed by carbon dioxide inhalation, terminal blood samples are collected by cardiac puncture and serum is generated. Serum is stored frozen until assayed for IFN-γ, as described by the kit manufacturer (BD Pharmingen™, San Diego, Calif.).

A further assay concerns GVHD. The note with it: in vivo; cited from earlier work.
In assay [1] the test system is spontaneous autoimmune diabetes. The conditions noted are these: NOD mouse; cited from earlier work.

For the compound `C[C@@H]1CCN(C(=O)CC#N)C[C@@H]1N(C)c1ncnc2[nH]ccc12` [CP-690,550], the animal survival result in the assay with kidney transplantation and in the assay on heart transplantation was “prolong animal survival” throughout. Consider `N#Cc1ccc2ncn(-c3ncc4nc(-c5cncnc5)n(C5CCOc6c(F)ccc(F)c65)c4n3)c2c1` (stereo not drawn) [Example 6], for which the IC50 on Jak3 is < 0.1 µM. For the same compound, in the assay with IFN-γ production, the “inhibit IFN-γ production” value is on record as 93%. With `N#Cc1ccc2ncn(-c3ncc4nc(-c5cncnc5)n([C@@H]5CCOc6c(F)cccc65)c4n3)c2c1` [Example 13, 3-(9-((R)-8-fluorochroman-4-yl)-8-(pyrimidin-5-yl)-9H-purin-2-yl)-3H-benzo[d]imidazole-5-carbonitrile], the IC50 on Jak3 is < 0.1 µM. The “inhibit IFN-γ production” value with IFN-γ production worked out at 76%. As for `N#Cc1ccc2ncn(-c3ncc4nc(Nc5ccccc5F)n(C5CCOCC5)c4n3)c2c1` [Example 109], the IC50 at Jak3 was < 0.1 µM. Same read-out and setting: under `N#Cc1cccc(Nc2nc3cnc(-n4cnc5ccc(Cl)cc54)nc3n2C2CCOCC2)c1` [Example 110] stands > 1 µM. The same measure, in the same setting: under `CSc1nc2cnc(-n3cnc4ccc(F)cc43)nc2n1[C@@H]1CCOc2c(F)cccc21` [Example 111] stands < 0.1 µM; under `O[C@@H]1CC[C@@H](n2c(-c3cncnc3)nc3cnc(-n4cnc5ccc(F)cc54)nc32)c2ccccc21` [Example 112, (1R,4R)-4-(2-(6-Fluoro-1H-benzo[d]imidazol-1-yl)-8-(pyrimidin-5-yl)-9H-purin-9-yl)-1,2,3,4-tetrahydronaphthalen-1-ol], < 0.1 µM. For the compound `COc1cc2ncnc(Nc3ccc(O)cc3)c2cc1OC` [WHI-P131], in the assay on GVHD, the “severity of GVHD” value was “attenuate the severity of GVHD”. Besides, the “spontaneous autoimmune diabetes development” value in assay [1] is listed as “prevent spontaneous autoimmune diabetes development”.
